# Reference: ChEMBL document CHEMBL4665869, “New thiazolopyrimidine as anticancer agents: Synthesis, biological evaluation, DNA binding, molecular modeling and ADMET study” (Bioorg Med Chem Lett, 2020)
# Calls of active or inactive are those of the source. The calls are words filed in the database; no cut-off is given here.
# What was measured:
# Assay type in all cases: functional
# HCC 2998 = experiment: Growth inhibition of human HCC 2998 cells at 10 uM relative to control
# SN12C = experiment: Growth inhibition of human SN12C cells at 10 uM relative to control
# OVCAR-5 = experiment: Growth inhibition of human OVCAR-5 cells at 10 uM relative to control
# SF-268 = experiment: Growth inhibition of human SF-268 cells at 10 uM relative to control
# UACC-62 = experiment: Growth inhibition of human UACC-62 cells at 10 uM relative to control
# ACHN = experiment: Growth inhibition of human ACHN cells at 10 uM relative to control
# MDA-MB-468 = experiment: Growth inhibition of human MDA-MB-468 cells at 10 uM relative to control
# SNB-75 = experiment: Growth inhibition of human SNB-75 cells at 10 uM relative to control; details: read-out: GI
# CAKI-1 = experiment: Growth inhibition of human CAKI-1 cells at 10 uM relative to control
# NCI-H460 = experiment: Growth inhibition of human NCI-H460 cells at 10 uM relative to control
# BT-549 = experiment: Growth inhibition of human BT-549 cells at 10 uM relative to control
# [1] = tested on: Panel NCI-60 (60 carcinoma cell lines); experiment: Growth inhibition of human NCI60 cells
# SNB-19 = experiment: Growth inhibition of human SNB-19 cells at 10 uM relative to control; details: read-out: GI
# UO-31 = experiment: Growth inhibition of human UO-31 cells at 10 uM relative to control
structure (smiles),measurement,setting,value
COc1cc(/C=C/C2=CC(c3cc(OC)c(OC)c(OC)c3)N3C=C(C)SC3=N2)cc(OC)c1OC (stereo unspecified),growth inhibition (GI),HCC 2998,Active
same,growth inhibition (GI),SN12C,Active
same,growth inhibition (GI),OVCAR-5,Active
same,growth inhibition (GI),SF-268,Active
same,growth inhibition (GI),UACC-62,Active
same,growth inhibition (GI),ACHN,Active
same,growth inhibition (GI),MDA-MB-468,Active
same,inhibition of growth at 10 µM,SNB-75,75.6%
same,growth inhibition (GI),CAKI-1,Active
same,growth inhibition (GI),NCI-H460,Active
same,growth inhibition (GI),BT-549,Active
same,GI50,[1],1.07 µM
same,LC50,[1],34.7 µM
same,TGI,[1],6.61 µM
same,inhibition of growth at 10 µM,SNB-19,66.5%
same,growth inhibition (GI),UO-31,Active
